From ChEMBL document CHEMBL4130359, “Indazole-based ligands for estrogen-related receptor α as potential anti-diabetic agents” (Eur J Med Chem, 2017)

Legend:
[1] = test system: Rattus norvegicus; experiment: Effect on ECSIT gene expression in epididymal white adipose tissue of Zucker rat sub-chronic fa/fa prediabetic model at 10 mg/kg, po qd for 15 days by microarray analysis relative to control; assay type: functional
[2] = test system: Rattus norvegicus; experiment: Toxicity in […] model assessed as serum BUN level at 10 mg/kg, po qd for 31 days measured on day 32 (reference value: 28.3 +/- […]); assay type: organism-based; conditions: in vivo, 744 h
[3] = AUC (0 to 24 hrs) in Zucker rat sub-chronic fa/fa prediabetic model at 1 mg/kg, po qd measured on day 1 post dose; assay type: ADME, organism-based; set-up: time < 24 hr, dose 1 mg/kg, route oral; conditions: in vivo
[4] = test system: Rattus norvegicus; experiment: Effect on RRAS2 gene expression in epididymal white adipose tissue of Zucker rat sub-chronic fa/fa prediabetic model at 10 mg/kg, po qd for 15 days by microarray analysis relative to control; assay type: functional
[5] = test system: Rattus norvegicus; experiment: Decrease in fed plasma insulin level in Zucker rat sub-chronic fa/fa prediabetic model assessed as change in plasma insulin level at 10 mg/kg, po qd for 4 days measured on day 5 relative to control; assay type: functional; set-up: scale not given: the % may be the effect or the level left
[6] = target: Oxysterols receptor LXR-alpha (Homo sapiens, UniProt Q13133); experiment: Agonist activity at recombinant GST-tagged human LXRalpha LBD assessed as fluorescein-labeled coactivator peptide recruitment preincubated with enzyme followed by coactivator addition by LanthaScreen TR-FRET assay
Oxysterols receptor LXR-alpha, sequence (Q13133 whole entry, the tested form may be a part): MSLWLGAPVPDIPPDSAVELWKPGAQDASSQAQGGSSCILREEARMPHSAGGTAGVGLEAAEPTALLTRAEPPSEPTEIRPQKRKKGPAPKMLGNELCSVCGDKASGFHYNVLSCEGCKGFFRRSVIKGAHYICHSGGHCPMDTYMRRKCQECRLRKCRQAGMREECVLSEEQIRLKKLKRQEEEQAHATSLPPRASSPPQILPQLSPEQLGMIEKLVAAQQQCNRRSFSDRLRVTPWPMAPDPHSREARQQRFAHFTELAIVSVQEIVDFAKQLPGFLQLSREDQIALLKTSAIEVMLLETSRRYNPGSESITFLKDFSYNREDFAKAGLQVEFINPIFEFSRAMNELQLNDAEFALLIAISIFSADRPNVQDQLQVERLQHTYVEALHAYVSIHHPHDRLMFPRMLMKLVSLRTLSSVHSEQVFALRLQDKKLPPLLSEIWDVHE

[7] = test system: Rattus norvegicus; assay type: functional, Zucker
[8] = target: Peroxisome proliferator-activated receptor delta (Homo sapiens, UniProt Q03181); experiment: Agonist activity at recombinant GST-tagged human PPARdelta LBD assessed as fluorescein-labeled coactivator peptide recruitment preincubated with enzyme followed by coactivator addition by LanthaScreen TR-FRET assay
Peroxisome proliferator-activated receptor delta, sequence (Q03181 whole entry, the tested form may be a part): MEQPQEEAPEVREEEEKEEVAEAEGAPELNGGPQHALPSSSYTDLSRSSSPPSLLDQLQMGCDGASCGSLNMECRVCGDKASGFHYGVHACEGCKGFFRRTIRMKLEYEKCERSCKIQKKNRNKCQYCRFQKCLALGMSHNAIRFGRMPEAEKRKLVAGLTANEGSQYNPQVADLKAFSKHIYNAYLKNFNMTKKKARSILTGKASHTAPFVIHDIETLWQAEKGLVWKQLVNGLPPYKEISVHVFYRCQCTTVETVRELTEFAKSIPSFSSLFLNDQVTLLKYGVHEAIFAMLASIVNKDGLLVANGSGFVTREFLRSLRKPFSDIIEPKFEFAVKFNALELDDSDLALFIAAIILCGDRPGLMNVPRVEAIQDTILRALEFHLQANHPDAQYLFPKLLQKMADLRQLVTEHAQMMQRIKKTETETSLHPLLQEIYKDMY

[9] = test system: Rattus norvegicus; experiment: Toxicity in Zucker rat sub-chronic fa/fa prediabetic model assessed as effect on liver enzymes at 10 mg/kg, po qd during 10 days study; assay type: organism-based; conditions: in vivo, 240 h
[10] = test system: Rattus norvegicus; experiment: Effect on NDUFB5 gene expression in epididymal white adipose tissue of Zucker rat sub-chronic fa/fa prediabetic model at 10 mg/kg, po qd for 15 days by microarray analysis relative to control; assay type: functional
[11] = test system: Rattus norvegicus; experiment: Toxicity in […] chronic ob/ob model assessed as body weight at 3 mg/kg, po qd for 28 days measured on day 28 post last dose (reference value: 47.3 +/- 1.06 g); assay type: organism-based; conditions: in vivo, 672 h
[12] = test system: Rattus norvegicus; experiment: Toxicity in Zucker rat sub-chronic fa/fa prediabetic model assessed as serum cholesterol level at 1 mg/kg, po qd for 31 days measured on day 32 (reference value: 295 +/- 91 mg/dl); assay type: organism-based; conditions: in vivo, 744 h
[13] = test system: Rattus norvegicus; experiment: Effect on MLYCD gene expression in epididymal white adipose tissue of Zucker rat sub-chronic fa/fa prediabetic model at 10 mg/kg, po qd for 15 days by microarray analysis relative to control; assay type: functional
[14] = AUC (0 to 24 hrs) in CD-1 mouse at 20 mg/kg administered via oral gavage by LC-MS analysis; assay type: ADME, organism-based; set-up: dose 20 mg/kg, time < 24 hr, route oral; conditions: in vivo
[15] = test system: Rattus norvegicus; experiment: Toxicity in Zucker rat sub-chronic fa/fa prediabetic model assessed as heart weight at 50 mg/kg, po qd for 31 days measured on day 32 (reference value: 1.19 +/- 0.04 g); assay type: organism-based; conditions: in vivo, 744 h
[16] = test system: Rattus norvegicus; experiment: Effect on NDUFA12 gene expression in epididymal white adipose tissue of Zucker rat sub-chronic fa/fa prediabetic model at 10 mg/kg, po qd for 15 days by microarray analysis relative to control; assay type: functional
[17] = species: Cavia porcellus; experiment: Inhibition of veratridine binding to Dunkin Hartley guinea pig atria sodium channel site 2 (unknown origin) at 10 uM relative to control
[18] = test system: Rattus norvegicus; experiment: Toxicity in Zucker rat sub-chronic fa/fa prediabetic model assessed as serum AST level at 50 mg/kg, po qd for 31 days measured on day 32 (reference value: 187 +/- 37 U/L); assay type: organism-based; conditions: in vivo, 744 h
[19] = test system: Rattus norvegicus; experiment: Effect on SUCLG1 gene expression in epididymal white adipose tissue of Zucker rat sub-chronic fa/fa prediabetic model at 10 mg/kg, po qd for 15 days by microarray analysis relative to control; assay type: functional
[20] = test system: Rattus norvegicus; experiment: Antidiabetic activity in Zucker rat sub-chronic fa/fa prediabetic model assessed as blood glucose AUC (0 to 120 min) at 50 mg/kg, po qd for 31 days measured on day 29 post dose by OGTT (reference value: 41471 +/- 2451 mg.min/dL); assay type: functional

In the case of `CN1CC[C@@H](N2C(=O)S/C(=C\c3ccc4c(cnn4Cc4ccc(Cl)cc4C(F)(F)F)c3)C2=O)[C@H](F)C1`, the “fold change (FC)” value [1] is reported as 1.339, the Activity [2] is reported as 28.7 mg/dL and the AUC(0-t) at 24 h [3] is reported as 1760 ng·h/mL. The “fold change (FC)” value [4] was 1.235, the Activity [5] was -67% and the EC50 [6] was over 10 µM. For the same compound, the Activity [7] was 331.3 mg/dL, the EC50 [8] was over 10 µM and the Activity [9] was “Non-Toxic”. For the same compound, the “fold change (FC)” value [10] was 1.206, the Activity [11] was 43.5 g and the Activity [12] was 328 mg/dL. The “fold change (FC)” value [13] was 1.608, the AUC(0-t) at 24 h [14] was 14600 ng·h/mL and the Activity [15] was 1.19 g. For the same compound, the “fold change (FC)” value [16] was 1.252, the inhibition [17] was 69% and the Activity [18] was 87 U/L. For the same compound, the “fold change (FC)” value [19] was 1.401 and the Activity [20] was 16701 mg·min/dL.
